Data as given in patent US20160075653A1, “NEMATICIDAL N-(PHENYLCYCLOALKYL)CARBOXAMIDES AND N-(PHENYLCYCLOALKYL)THIOCARBOXAMIDES” (BAYER CROPSCIENCE AKTIENGESELLSCHAFT, priority 2013, published 2016).

Experiment: Measurement of log P values by HPLC on reversed phase columns (methods [a] pH 2.3, [b] pH 2.7, [c] pH 7.8)
Format: physicochemical
Settings: HPLC on reversed phase column, method [b], pH 2.7
Procedure, shortened: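 Retention times were converted to log P by linear interpolation between linear alkan-2-one standards (3 to 16 carbons) of known log P. Eluents, each with 10% to 95% acetonitrile gradient: phosphoric acid 0.1% at pH 2.3 [a]; formic acid 0.1% at pH 2.7, LC-MS [b]; ammonium hydrogen carbonate 0.001 molar at pH 7.8, LC-MS [c].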
For `O=C(N[C@@H]1CC[C@H]1c1cccc(F)c1C(F)(F)F)c1ccccc1[N+](=O)[O-]` (relative stereo) [Example 629], the logP was 3.18^[b].
In the case of `O=C(N[C@@H]1CC[C@H]1c1cccc(F)c1C(F)(F)F)c1ccccc1Br` (relative stereo) [Example 632], the logP is reported as 3.57^[b].
With `Cc1nc(C(F)(F)F)c(C(=O)N[C@@H]2CC[C@H]2c2ccccc2C(F)(F)F)s1` (relative stereo) [Example 633] the logP was 3.49^[b].
With `Cc1nc(C(F)(F)F)c(C(=O)N[C@@H]2CC[C@@H]2c2ccccc2C(F)(F)F)s1` (relative stereo) [Example 634] the logP was 3.34^[b].
For `O=C(N[C@@H]1CC[C@H]1c1ccccc1C(F)(F)F)c1sccc1I` (relative stereo) [Example 635], the logP was 3.99^[b].
For `O=C(N[C@@H]1CC[C@@H]1c1ccccc1C(F)(F)F)c1sccc1I` (relative stereo) [Example 636], the logP was 3.83^[b].
For `O=C(N[C@@H]1CC[C@H]1c1ccccc1C(F)(F)F)c1ccccc1[N+](=O)[O-]` (relative stereo) [Example 637], the logP was 3.13^[b].
For `O=C(N[C@@H]1CC[C@H]1c1cccc(F)c1C(F)(F)F)c1c(F)cccc1F` (relative stereo) [Example 640], the logP was 3.36^[b].
In the case of `Cn1cc(C(=O)N[C@@H]2CC[C@@H]2c2cccc(F)c2C(F)(F)F)c(C(F)F)n1` (relative stereo) [Example 643], the logP is reported as 2.75^[b].
In the case of `Cn1cc(C(=O)N[C@@H]2CC[C@H]2c2cccc(F)c2C(F)(F)F)c(C(F)F)n1` (relative stereo) [Example 644], the logP is reported as 2.99^[b].
In the case of `O=C(N[C@@H]1CC[C@H]1c1cccc(F)c1C(F)(F)F)c1nccnc1Cl` (relative stereo) [Example 646], the logP is reported as 3.10^[b].
For `O=C(N[C@@H]1CC[C@H]1c1cccc(F)c1C(F)(F)F)c1cccnc1Cl` (relative stereo) [Example 648], the logP was 2.86^[b].
In the case of `N#Cc1ccccc1C(=O)N[C@@H]1C[C@@H]1c1ccc(Cl)cc1Cl` (relative stereo) [Example 650], the logP is reported as 2.72^[b].
In the case of `O=C(N[C@@H]1CC[C@H]1c1ccc(Br)cc1C(F)(F)F)c1ccccc1C(F)(F)F` (relative stereo) [Example 655], the logP is reported as 4.26^[b].
In the case of `O=C(N[C@@H]1CC[C@@H]1c1ccc(Br)cc1C(F)(F)F)c1ccccc1C(F)(F)F` (relative stereo) [Example 656], the logP is reported as 4.02^[b].
For `O=C(N[C@@H]1CC[C@@H]1c1ccc(Br)cc1C(F)(F)F)c1cccnc1C(F)(F)F` (relative stereo) [Example 657], the logP was 3.52^[b].
In the case of `O=C(N[C@@H]1CC[C@H]1c1ccc(Br)cc1C(F)(F)F)c1cccnc1C(F)(F)F` (relative stereo) [Example 658], the logP is reported as 3.76^[b].
For `O=C(N[C@@H]1CC[C@@H]1c1ccc(Br)cc1C(F)(F)F)c1nccnc1C(F)(F)F` (relative stereo) [Example 659], the logP was 3.72^[b].
In the case of `O=C(N[C@@H]1CC[C@H]1c1ccc(Br)cc1C(F)(F)F)c1nccnc1C(F)(F)F` (relative stereo) [Example 660], the logP is reported as 3.97^[b].
With `O=C(N[C@@H]1CC[C@@H]1c1ccc(Cl)cc1Cl)c1ccccc1[N+](=O)[O-]` (relative stereo) [Example 661] the logP was 3.19^[b].
With `O=C(N[C@@H]1CC[C@H]1c1ccc(Cl)cc1Cl)c1cccnc1` (relative stereo) [Example 662] the logP was 2.58^[b].
In the case of `O=C(N[C@@H]1CC[C@@H]1c1ccc(Cl)cc1Cl)c1cccnc1Cl` (relative stereo) [Example 663], the logP is reported as 2.84^[b].
In the case of `O=C(N[C@@H]1CC[C@H]1c1cccc(F)c1C(F)(F)F)c1cccnc1` (relative stereo) [Example 664], the logP is reported as 2.38^[b].
In the case of `O=C(N[C@@H]1CC[C@H]1c1ccc(Cl)cc1C(F)(F)F)c1ccc(Cl)cc1Cl` (relative stereo) [Example 665], the logP is reported as 4.55^[b].
For `O=C(N[C@@H]1CC[C@@H]1c1ccc(Cl)cc1C(F)(F)F)c1ccccc1Cl` (relative stereo) [Example 666], the logP was 3.75^[b].
With `O=C(N[C@@H]1CC[C@@H]1c1ccc(Cl)cc1C(F)(F)F)c1ncc(C(F)(F)F)cc1Cl` (relative stereo) [Example 667] the logP was 4.33^[b].
In the case of `Cc1nc(C(F)(F)F)c(C(=O)N[C@@H]2CC[C@H]2c2ccc(Cl)cc2Cl)s1` (relative stereo) [Example 668], the logP is reported as 3.91^[b].
In the case of `Cc1nc(C(F)(F)F)c(C(=O)N[C@@H]2CC[C@@H]2c2ccc(Cl)cc2Cl)s1` (relative stereo) [Example 669], the logP is reported as 3.58^[b].
In the case of `O=C(N[C@@H]1CC[C@H]1c1ccc(Cl)cc1Cl)c1sccc1I` (relative stereo) [Example 670], the logP is reported as 4.51^[b].
In the case of `O=C(N[C@@H]1CC[C@@H]1c1ccc(Cl)cc1Cl)c1sccc1I` (relative stereo) [Example 671], the logP is reported as 4.20^[b].
With `O=C(N[C@@H]1CC[C@H]1c1ccc(Cl)cc1Cl)c1ccccc1[N+](=O)[O-]` (relative stereo) [Example 672] the logP was 3.47^[b].
With `O=C(N[C@@H]1CC[C@@H]1c1ccc(Cl)cc1Cl)c1cccnc1` (relative stereo) [Example 673] the logP was 2.23^[b].
For `O=C(N[C@@H]1CC[C@H]1c1ccc(Cl)cc1Cl)c1cccnc1Cl` (relative stereo) [Example 674], the logP was 3.16^[b].
With `O=C(N[C@@H]1CC[C@H]1c1ccc(Cl)cc1Cl)c1nccnc1Cl` (relative stereo) [Example 675] the logP was 3.43^[b].
With `O=C(N[C@@H]1CC[C@@H]1c1ccc(Cl)cc1Cl)c1nccnc1Cl` (relative stereo) [Example 676] the logP was 3.05^[b].
In the case of `O=C(N[C@@H]1CC[C@H]1c1ccc(Cl)cc1C(F)(F)F)c1ccccc1I` (relative stereo) [Example 677], the logP is reported as 4.20^[b].
In the case of `O=C(N[C@@H]1CC[C@@H]1c1ccc(Cl)cc1C(F)(F)F)c1ccccc1I` (relative stereo) [Example 678], the logP is reported as 3.90^[b].
For `O=C(N[C@@H]1CC[C@H]1c1ccc(Cl)cc1C(F)(F)F)c1ccccc1` (relative stereo) [Example 679], the logP was 3.87^[b].
In the case of `O=C(N[C@@H]1CC[C@@H]1c1ccc(Cl)cc1C(F)(F)F)c1ccccc1` (relative stereo) [Example 680], the logP is reported as 3.51^[b].
For `O=C(N[C@@H]1CC[C@H]1c1ccc(Cl)cc1C(F)(F)F)c1ccccc1Cl` (relative stereo) [Example 697], the logP was 4.01^[b].
With `O=C(N[C@@H]1CC[C@H]1c1ccc(Cl)cc1C(F)(F)F)c1ncccc1Cl` (relative stereo) [Example 698] the logP was 3.84^[b].
For `O=C(N[C@@H]1CC[C@@H]1c1ccc(Cl)cc1C(F)(F)F)c1ncccc1Cl` (relative stereo) [Example 699], the logP was 3.49^[b].
With `O=C(N[C@@H]1CC[C@H]1c1ccc(Cl)cc1C(F)(F)F)c1ncc(C(F)(F)F)cc1Cl` (relative stereo) [Example 700] the logP was 4.65^[b].
In the case of `O=C(N[C@@H]1CC[C@H]1c1ccc(Cl)cc1C(F)(F)F)c1c(F)cccc1F` (relative stereo) [Example 701], the logP is reported as 3.75^[b].
With `O=C(N[C@@H]1CC[C@@H]1c1ccc(Cl)cc1C(F)(F)F)c1c(F)cccc1F` (relative stereo) [Example 702] the logP was 3.52^[b].
With `O=C(N[C@@H]1CC[C@H]1c1ccc(Cl)cc1C(F)(F)F)c1ccccc1C(F)(F)F` (relative stereo) [Example 703] the logP was 4.10^[b].
In the case of `O=C(N[C@@H]1CC[C@@H]1c1ccc(Cl)cc1C(F)(F)F)c1ccccc1C(F)(F)F` (relative stereo) [Example 704], the logP is reported as 3.84^[b].
In the case of `O=C(N[C@@H]1CC[C@@H]1c1ccc(Cl)cc1C(F)(F)F)c1ccc(Cl)cc1Cl` (relative stereo) [Example 705], the logP is reported as 4.27^[b].
In the case of `O=C(N[C@@H]1CC[C@H]1c1ccc(Cl)cc1C(F)(F)F)c1ccc(Cl)cc1` (relative stereo) [Example 706], the logP is reported as 4.43^[b].
With `O=C(N[C@@H]1CC[C@@H]1c1ccc(Cl)cc1C(F)(F)F)c1ccc(Cl)cc1` (relative stereo) [Example 707] the logP was 4.04^[b].
With `O=C(N[C@@H]1CC[C@H]1c1ccc(Cl)cc1C(F)(F)F)c1cccc(Cl)c1` (relative stereo) [Example 708] the logP was 4.46^[b].
In the case of `O=C(N[C@@H]1CC[C@@H]1c1ccc(Cl)cc1C(F)(F)F)c1cccc(Cl)c1` (relative stereo) [Example 709], the logP is reported as 4.05^[b].
With `O=C(N[C@@H]1CC[C@H]1c1ccc(Cl)cc1C(F)(F)F)c1ccccc1[N+](=O)[O-]` (relative stereo) [Example 712] the logP was 3.61^[b].
With `O=C(N[C@@H]1CC[C@@H]1c1ccc(Cl)cc1C(F)(F)F)c1ccccc1[N+](=O)[O-]` (relative stereo) [Example 713] the logP was 3.36^[b].
For `O=C(N[C@@H]1CC[C@@H]1c1ccc(Cl)cc1C(F)(F)F)c1cccnc1` (relative stereo) [Example 714], the logP was 2.50^[b].
In the case of `O=C(N[C@@H]1CC[C@H]1c1ccc(Cl)cc1C(F)(F)F)c1cccnc1Cl` (relative stereo) [Example 715], the logP is reported as 3.33^[b].
In the case of `O=C(N[C@@H]1CC[C@H]1c1ccc(Cl)cc1C(F)(F)F)c1nccnc1Cl` (relative stereo) [Example 716], the logP is reported as 3.56^[b].

Same assay, conditions: HPLC on reversed phase column, method [c], pH 7.8
With `N#Cc1ccccc1C(=O)N[C@@H]1C[C@@H]1c1ccc(Cl)cc1Cl` (relative stereo) [Example 650] the logP was 2.70^[c];.
For `O=C(N[C@@H]1CC[C@H]1c1ccc(Br)cc1C(F)(F)F)c1ccccc1C(F)(F)F` (relative stereo) [Example 655], the logP was 4.19^[c];.
For `O=C(N[C@@H]1CC[C@@H]1c1ccc(Br)cc1C(F)(F)F)c1ccccc1C(F)(F)F` (relative stereo) [Example 656], the logP was 3.94^[c];.
For `O=C(N[C@@H]1CC[C@@H]1c1ccc(Br)cc1C(F)(F)F)c1cccnc1C(F)(F)F` (relative stereo) [Example 657], the logP was 3.42^[c];.
For `O=C(N[C@@H]1CC[C@H]1c1ccc(Br)cc1C(F)(F)F)c1cccnc1C(F)(F)F` (relative stereo) [Example 658], the logP was 3.66^[c];.
With `O=C(N[C@@H]1CC[C@@H]1c1ccc(Br)cc1C(F)(F)F)c1nccnc1C(F)(F)F` (relative stereo) [Example 659] the logP was 3.62^[c];.
In the case of `O=C(N[C@@H]1CC[C@H]1c1ccc(Br)cc1C(F)(F)F)c1nccnc1C(F)(F)F` (relative stereo) [Example 660], the logP is reported as 3.87^[c];.

Same assay, conditions: HPLC on reversed phase columns, method [b], pH 2.7
In the case of `O=C(N[C@@H]1CC[C@@H]1c1ccc(Cl)cc1C(F)(F)F)c1nccnc1Cl` (relative stereo) [Example 717], the logP is reported as 3.24^[b].

Same assay, conditions: reversed phase HPLC columns, HPLC-MS, method letter not given; read-out: log P
In the case of `Cn1cc(C(=O)NC2CCC2c2ccc(Cl)cc2Cl)c(C(F)F)n1` (single isomer, unassigned) [Preparation Example 2 cis-Isomer, cis-N-[2-(2,4-dichlorophenyl)cyclobutyl]-3-(difluoromethyl)-1-methyl-1H-pyrazole-4-carboxamide], the chromatographic logP is reported as 2.95.
